For one assay, the system named is 26S proteasome. Briefly: Proteasome subcellular localization in cultured cells (immunofluorescence, cell fractionation/Western blot). In kind it is cell-based, human. To be noted: for proteasome translocation from the nucleus to the cytosol: amino acid starvation, substance added to starvation medium; for proteasome localization: non-stressed / well-fed cells, complete medium; for proteasome dynamics under known p38 activators: RT4 and HeLa cells. On the procedure: Cells were incubated for 20 min in fractionation buffer [20 mM HEPES pH 7.3, 10 mM KCl, 5 mM ATP, 5 mM MgCl2, and protease inhibitor cocktail (Roche)], followed by the addition of Digitonin (0.01%). They were then mixed thoroughly and centrifuged at 1,000×g for 5 min. The supernatant was collected as cytosolic fraction, and the pellet was washed with fractionation buffer supplemented with NP-40 (0.05%) and centrifuged, and the pellet (nuclei) was resuspended in fractionation buffer supplemented with sodium deoxycholate (0.5%), followed by its sonication.
(§1) Cells were washed twice with ice cold PBS and scraped into lysis buffer (50 mM Tris-HCl, pH 7.4, 130 mM NaCl, 0.5% NP-40) supplemented with freshly added protease inhibitor cocktail, 5 mM ATP, 10 mM iodoacetamide, and 5 mM N-ethyl maleimide. Protein concentration was measured by the BCA assay according to the manufacturer's instructions (Pierce, Rockford, IL). 30 μg of cellular protein were resolved via SDS-PAGE, transferred to a nitrocellulose membrane and immunoblotted with the appropriate antibody.
Cells were seeded on glass cover slips for 36 h. Following the indicated treatments, they were fixed with 4% PFA for 15 min, washed with phosphate-buffered saline (PBS) and incubated in PBS containing 10% goat serum for 1 h at room temperature, followed by 2 h incubation with the indicated primary antibody. Following extensive wash with PBS, the fixed cells were incubated with the relevant secondary antibody for 1 h, washed and mounted. Images were acquired using Zeiss LSM 700 confocal microscope (Zeiss, Oberkochen, Germany). […]
Background: Immunoblotting shows a protein as a band on a membrane.

In the next assay the test system is HeLa cells. The assay can be described thus: Amino acids level measurement (LC-MS). Conditions: Torin1 treatment relative to control. In kind it is cell-based, human. On the procedure: Metabolic analysis was carried out as previously described [G. M. MacKay et al., 1st Ed. (Elsevier Inc., 2015)]. Briefly, cells were rapidly washed 3 times with ice-cold PBS and extracted with an aqueous solution of 50% Methanol, and 30% Acetonitrile. Samples were centrifuged at 16,000×g for 10 min at 4° C., and the supernatants were analyzed using HPLC-MS (Q-Exactive Orbitrap Mass Spectrometer (Thermo Scientific) coupled to Thermo Scientific UltiMate 3000 HPLC system). The HPLC setup consisted of a ZIC-PHILIC column (SeQuant, 150×2.1 mm, 5 μm, Merck) with a ZIC-PHILIC guard column (SeQuant, 20×2.1 mm). The aqueous mobile phase solvent was 20 mM ammonium carbonate adjusted to pH 9.4 with 0.1% ammonium hydroxide. The organic mobile phase was acetonitrile. Amino acids and other metabolites were separated over a 15 min linear gradient from 80% organic to 80% aqueous. The column temperature was 45° C., the flow rate 200 μl/min, and the run time 27 min. All metabolites were detected across a mass range of 75-1,000 m/z using the Q-Exactive mass spectrometer at a resolution of 35,000 (at 200 m/z) with electrospray ionization and polarity switching mode. Mass accuracy obtained for all metabolites was below 5 ppm. Data were acquired with Thermo Xcalibur software. The peak areas of different amino acids were determined using Thermo TraceFinder software through which metabolites were identified by the exact mass of the singly charged ion and the known retention time on the HPLC column. Commercially available standard compounds had been analyzed before to determine ion masses and retention times on the ZIC-PHILIC column. Protein quantitation based on the Lowry method was performed for normalization. The figure presents mean+/−SD of three replicates.

For the next assay, the system named is STAT3. Briefly: Western blot for STAT3 phosphorylated at Tyr705. In kind it is cell-based, human. Conditions: Torin1 treatment. Here is the method: as §1
For the next assay, the system named is HeLa and RT4 cells. Briefly: Cell survival assay (live/dead imaging). It is filed as cell-based. On the procedure: Data analysis was performed using the Live/Dead module of the MetaXpress software (Molecular Devices). […] Intensities were quantified using Li-Cor imager and software (Odyssey).

For `N[C@@H](Cc1ccccc1)C(=O)O` [Phe, Phenylalanine], the “proteasome translocation from the nucleus to the cytosol” value (shortened to “proteasome translocation”) in the assay with 26S proteasome was “inhibitory effect on proteasome translocation”.

As for `O=[N+]([O-])c1ccc2c(c1)S(=O)(=O)C=C2` [Stattic], in the assay on 26S proteasome, the “proteasome translocation” value is given as “prevented proteasome translocation from the nucleus to the cytosol”.

In the case of `CCC(=O)N1CCN(c2ccc(-n3c(=O)ccc4cnc5ccc(-c6cnc7ccccc7c6)cc5c43)cc2C(F)(F)F)CC1` [Torin1], the “level of amino acids” value with HeLa cells is “gain in amino acids”. Also, the proteasome localization entry in the assay on 26S proteasome is “induced nuclear export of both 20S and 19S sub-complexes”. In addition, in the assay with STAT3, the “STAT3 Y705 phosphorylation” value is given as “upregulation of Y705 phosphorylation”.

As for `N[C@@H](Cc1c[nH]c2ccccc12)C(=O)O` [Trp, Tryptophan], the “proteasome translocation” value with 26S proteasome was “inhibitory effect on proteasome translocation”.

For `N[C@@H](Cc1ccc(O)cc1)C(=O)O` [Tyr, 4-hydroxyphenylalanine], the “proteasome translocation” value in the assay on 26S proteasome is “inhibitory effect on proteasome translocation”.

In the case of `COc1ccc(C[C@H]2NC[C@H](O)[C@H]2OC(C)=O)cc1` [anisomycin], in the assay on HeLa and RT4 cells, the “cell death under known p38 activators” value is reported as “many of the cells died”. In the assay with 26S proteasome, the “proteasome dynamics under known p38 activators” value was “the proteasome was locked in the nucleus”.

Take `C[C@@H]1C[C@@H]([C@H](O)CC2CC(=O)NC(=O)C2)C(=O)[C@@H](C)C1` [cycloheximide]: the “restoration of the nuclear proteasomal pool” value in the assay with 26S proteasome (replenishment of amino acids after starvation, in presence of substance) was “did not prevent restoration of the nuclear proteasomal pool”.

`OC[C@@H](O)[C@@H](O)[C@H](O)[C@@H](O)CO` [hyperosmotic stress, Sorbitol]: the “cell death under known p38 activators” value in the assay on HeLa and RT4 cells is “many of the cells died”. In addition, the “proteasome dynamics under known p38 activators” value in the assay on 26S proteasome is on record as “the proteasome was locked in the nucleus”.

For Ivermectin, in the assay on 26S proteasome, the proteasome localization entry is reported as “cytosolic accumulation”.

Values taken from patent publication US20250325508A1, “MODULATORS OF PROTEASOME DYNAMICS AND/OR FUNCTION, COMPOSITIONS, METHODS, AND THERAPEUTIC USES THEREOF” (TECHNION RESEARCH & DEVELOPMENT FOUNDATION LIMITED, priority 2022, published 2025).
